Data taken from patent publication US20120315342A1, “EPITHELIAL CELL-CELL ADHESION ENHANCER, AND AMELIORATING, THERAPEUTIC OR PROPHYLACTIC AGENT FOR ALLERGIC DISEASES USING SAME” (Tokai Medical Test Laboratory Co., priority 2010, published 2012).

Assays:
Format in all cases: cell-based
Caco-2 cells [1] = assay: Recovery of TEER after decreased epithelial cell-cell adhesion caused by extracellular calcium deficiency (Examples 1-3); details: for recovery of TEER in comparison with the negative control group / recovery-promoting effect on TEER in comparison with the positive control group: Example 1, FIG. 1, 1 wt. % in calcium-containing DMEM after 2 h calcium-free DMEM, n=3
Text: (§1) The oligosaccharide containing 1-kestose used in the present Example 1 is composed of 98 wt. % 1-kestose, 1 wt. % nystose, and 1 wt. % sucrose. Namely, it is an oligosaccharide containing 1-kestose at a purity of 98 wt. %. Also, as the index for the cell-cell adhesion strength in cultured cells, transepithelial electrical resistance (TEER) was used. This measurement method utilizes a property that the stronger the epithelial cell-cell adhesion, the bigger the electrical resistance value between the upper layer and the lower layer of the cell culture medium, and this technique is also employed for a model experiment using epithelial cells and the like.
(§2) Caco-2 cells, which are the epithelial colorectal carcinoma cells, were subcultured in a 10% FES-containing DMEM medium (GIBCO), and the 48th generation of cultured cells were cryopreserved and used for the following experiments. The Caco-2 cells were seeded in the upper layer of a Transwell (Corning Life Sciences) and cultured in an incubator in 5% CO2 at 37° C. in the presence of a 10% FBS-containing DMEM medium. Cell culture was performed until the electrical resistance between the upper layer and the lower layer of the Transwell (TEER) reached 400 to 500 Ω·cm^2.
The Caco-2 cells that were cultured until TEER of the Transwell reached 400 to 500 Ω·cm^2 were cultured for two hours after exchanging the 10% FES-containing DMEM medium for a calcium-free DMEM medium. Subsequently, a calcium-containing DMEM medium to which an oligosaccharide containing 1-kestose, or nystose, was added at a concentration of 1 wt. % was added to the upper layer. Then, TEER was chronologically measured every half hour, and the cells were cultured up to 22 hours and then TEER was measured (1% kestose group, 1% nystose group, n=3). As the control group, a group of cells that were cultured only in a calcium-free DMEM medium (negative control group, n=3) and a group in which culture was performed for two hours in a calcium-free DMEM medium, and then the medium was only exchanged for a calcium-containing DMEM medium (positive control group, n=3) were prepared, and chronological changes in TEER were compared.
The Caco-2 cells that were cultured until TEER of the Transwell reached 400 to 500 Ω·cm^2 were cultured for two hours after exchanging the 10% FBS-containing DMEM medium for a calcium-free DMEM medium. Subsequently, a calcium-containing DMEM medium to which an oligosaccharide containing 1-kestose was added at a concentration of 1 wt. % was added to the upper layer. Then, TEER was chronologically measured every half hour, and the cells were cultured up to three hours and then TEER was measured (calcium (+) 1% kestose group, n=3). Also, a group in which an oligosaccharide containing 1-kestose was added at a concentration of 1 wt. % to the calcium-free DMEM medium, while the medium was not exchanged for a calcium-containing DMEM medium, and cell culture was performed up to three hours and then TEER was measured was prepared (calcium (−) 1% kestose group, n=3). As the control group, a group of cells that were cultured only in a calcium-free DMEM medium (negative control group, n=3) and a group in which culture was performed for two hours in a calcium-free DMEM medium, and then the medium was only exchanged for a calcium-containing DMEM medium (positive control group, n=3) were prepared, and chronological changes in TEER were compared.
The Caco-2 cells that were cultured until TEER of the Transwell reached 400 to 500 Ω·cm^2 were cultured for two hours after exchanging the 10% FBS-containing DMEM medium for a calcium-free DMEM medium. Subsequently, a calcium-containing DMEM medium to which an oligosaccharide containing 1-kestose was added at a concentration of 1 wt. % or 0.1 wt. % was added to the upper layer. Then, TEER was chronologically measured every half hour, and the cells were cultured up to 3.5 hours and then TEER was measured (1% kestose group, 0.1% kestose group, n=3). […]

Caco-2 cells [2] = assay: Lucifer Yellow permeation from upper to lower layer after extracellular calcium deficiency (Example 5); details: Example 5, FIG. 6, 3 h; for residual concentration of Lucifer Yellow in the lower layer compared to the negative control group: 1 wt. % in calcium-containing medium, Lucifer Yellow in upper layer
Protocol: as §2
The Caco-2 cells that were cultured until TEER of the Transwell reached 400 to 500 Ω·cm^2 were cultured for two hours after exchanging the 10% FBS-containing DMEM medium for a calcium-free colorless HESS medium (GIBCO). Subsequently, a calcium-containing colorless HESS medium (GIBCO) to which an oligosaccharide containing 1-kestose, sucrose, or nystose was added at a concentration of 1 wt. % was added to the upper layer. At the same time, Lucifer Yellow (MP Biomedical LLC.) was added to the upper layer at a concentration of […] as a substance passing between the cells. After culturing for three hours, the HBSS medium in the lower layer was collected, and the residual concentration of Lucifer Yellow that had permeated from the upper layer to the lower layer was measured (1% kestose group, 1% sucrose group, and 1% nystose group, n=3). As the control group, a group of cells cultured only in a calcium-free HBSS medium (negative control group, n=3) and a group in which culture was performed for two hours in a calcium-free HBSS medium, and then the medium was only exchanged for a calcium-containing HBSS medium (positive control group, n=3) were prepared, and the amounts of substances that passed between the cells were compared.

Caco-2 cells [3] = assay: Prior administration of 1-kestose, inhibition of TEER decrease caused by extracellular calcium deficiency (Example 4); details: for TEER right before exchanging the medium for calcium-free DMEM, versus negative and positive control groups: 1 wt. %; for decrease in TEER after exchange for calcium-free DMEM and elimination of 1-kestose, versus negative control group: 1 wt. % prior administration
Text: as §1, §2
The Caco-2 cells were cultured until TEER of the Transwell reached 400 to 500 Ω·cm^2. The 10% FES-containing DMEM medium was exchanged for a […] DMEM medium, and an oligosaccharide containing 1-kestose was added at a concentration of 1 wt. % to the upper layer. The medium was exchanged for a calcium-free medium one hour or six hours later, and TEER was chronologically measured three times, every half hour (1-hour calcium (+) 1% kestose group, 6-hour calcium (+) 1% kestose group, n=3). As the control group, a group in which culture was performed for one hour or six hours in a calcium- containing DMEM medium, and then in a calcium-free DMEM medium (1-hour calcium (+) negative control group, 6-hour calcium (+) negative control group, n=3) and a group of cells that were cultured only in a calcium-containing DMEM medium (positive control group, n=3) were prepared, and chronological changes in TEER were compared.

Caco-2 cells [4] = assay: Inhibition of TEER decrease caused by inflammatory cytokine IL-1β (Example 6)
Text: as §1
Caco-2 cells, which are the epithelial colorectal carcinoma cells, were subcultured in a 10% FES-containing DMEM medium (GIBCO), and the 48th generation of cultured cells were cryopreserved and used for the following experiments. […]
To the upper layer of a DMEM medium in which the Caco-2 cells were cultured until TEER of the Transwell reached 400 to 500 Ω·cm^2, an oligosaccharide containing 1-kestose was added at a concentration of 1 wt. %. […] TEER was measured 48 hours later and a ratio of the value thus measured to the initial measured value of TEER was calculated (1% kestose (+), IL-1β(+) group, n=3). […]

[5] = Example 4, FIG. 4, 1-hour calcium (+)
[6] = Example 4, FIG. 5, 6-hour calcium (+)

| Compound | recovery of TEER in comparison with the negative control group (Caco-2 cells [1]) | recovery-promoting effect on TEER in comparison with the positive control group (Caco-2 cells [1]) | residual concentration of Lucifer Yellow in the lower layer compared to the negative control group (Caco-2 cells [2]) | residual concentration of Lucifer Yellow in the lower layer compared to the positive control group (Caco-2 cells [2]; 1 wt. %) | promotion of TEER recovery compared to the 1% nystose group (Caco-2 cells [1]; Example 1, 1 wt. %) | recovery-promoting effect relative to the positive control group, on average (Caco-2 cells [1]; Example 1, 1 wt. %, 30 minutes after exchanging calcium-free for calcium-containing DMEM) [times] | effect of promoting recovery of TEER in comparison with the positive control group (Caco-2 cells [1]; Example 2, FIG. 2, calcium (+), 1 wt. %) | recovery of TEER (Caco-2 cells [1]; Example 2, FIG. 2, calcium (+), 1 wt. % in calcium-containing DMEM, up to 3 h) | recovery of TEER (Caco-2 cells [1]; Example 2, FIG. 2, calcium (−), 1 wt. % in calcium-free DMEM, up to 3 h) | recovery of TEER (Caco-2 cells [1]; Example 3, FIG. 3, 0.1 wt. % in calcium-containing DMEM, up to 3.5 h) | promotion of recovery of TEER, 1% group versus 0.1% group (Caco-2 cells [1]; Example 3, FIG. 3, 1 wt. % compared with 0.1 wt. %) | recovery of TEER (Caco-2 cells [1]; Example 3, FIG. 3, 1 wt. % in calcium-containing DMEM, up to 3.5 h) | TEER right before exchanging the medium for calcium-free DMEM, versus negative and positive control groups (Caco-2 cells [3]; [5]) | decrease in TEER after exchange for calcium-free DMEM and elimination of 1-kestose, versus negative control group (Caco-2 cells [3]; [5]) | TEER right before exchanging the medium for calcium-free DMEM, versus negative and positive control groups (Caco-2 cells [3]; [6]) | decrease in TEER after exchange for calcium-free DMEM and elimination of 1-kestose, versus negative control group (Caco-2 cells [3]; [6]) | residual concentration of Lucifer Yellow in the lower layer, rank among all groups (Caco-2 cells [2]; 1 wt. %) | average TEER ratio (to the initial measured value of TEER) (Caco-2 cells [4]; Example 6, FIG. 7, 1 wt. % for 24 h, then IL-1β 10 ng/mL in lower layer, measured 48 h later, n=3) | inhibition of the decrease of TEER (Caco-2 cells [4]; Example 6, 1 wt. %, IL-1β 10 ng/mL, 48 h) |
| --- | --- | --- | --- | --- | --- | --- | --- | --- | --- | --- | --- | --- | --- | --- | --- | --- | --- | --- | --- |
| OC[C@H]1O[C@@](CO)(OC[C@@]2(OC[C@@]3(O[C@H]4O[C@H](CO)[C@@H](O)[C@H](O)[C@H]4O)O[C@H](CO)[C@@H](O)[C@@H]3O)O[C@H](CO)[C@@H](O)[C@@H]2O)[C@@H](O)[C@@H]1O [nystose] | significant recovery of TEER | significant recovery-promoting effect | significant reduction in the residual concentration | further reduced residual concentrations | – | – | – | – | – | – | – | – | – | – | – | – | – | – | – |
| OC[C@H]1O[C@@](CO)(OC[C@@]2(O[C@H]3O[C@H](CO)[C@@H](O)[C@H](O)[C@H]3O)O[C@H](CO)[C@@H](O)[C@@H]2O)[C@@H](O)[C@@H]1O [1-kestose] | significant recovery of TEER | significant recovery-promoting effect | significant reduction in the residual concentration | further reduced residual concentrations | tendency of stronger promotion of recovery | 2.4 | significant effect of promoting recovery of TEER | significant recovery of TEER | Recovery of TEER was hardly observed | significant recovery of TEER | tendency of stronger promotion of recovery of TEER | significant recovery of TEER | significant increase in TEER | tendency that a decrease in TEER in the 1-hour calcium (+) 1% kestose group was inhibited | significant increase in TEER | tendency that a decrease in TEER in the 6-hour calcium (+) 1% kestose group was inhibited | lowest residual concentration | 0.849 | approximately 26% |
